The series can be described thus: Thermo Scientific Acclaim RSLC 120 C18, 100 × 2.1 mm, 2.2 µm, 30 °C; A: 90% water + 10% methanol + 0.01% formic acid + 5 mM ammonium formate; B: methanol + 0.01% formic acid + 5 mM ammonium formate; gradient (min/%B) 0.1/1 3/39 14/99.9 16/99.9. As to conditions: stereoisomer not certain.
Take `CC(C)(C)NCC(O)COc1cccc2c1CC(O)C(O)C2` (stereo not given): the LC retention time was 4.29 min.

Turning to `CCN(C(=O)SCc1ccccc1)C(C)C(C)C` (stereo not given), the LC retention time was 12.2 min.

On to `CCSc1ccc2c(c1)N(CCCN1CCN(C)CC1)c1ccccc1S2`, for which the LC retention time is 10.4 min.

Regarding `CCCSP(=O)(OCC)SCCC`, the LC retention time turned out to be 10.2 min.

As for `COc1ccc(CNC(=O)c2cc([N+](=O)[O-])ccc2NC(C)CO)cc1OC` (stereo not given), the LC retention time was 7.8 min.

With `c1ccc2c(c1)CCCC2C1=NCCN1` (stereo not given), the LC retention time came to 4.47 min.

For the compound `CNC(=O)C(C)SCCSP(=O)(OC)OC` (stereo not given), the LC retention time was found to be 5.02 min.

Take `COc1cc2c(c(OC)c1OC)-c1ccc(OC)c(=O)cc1C(NC(C)=O)CC2` (stereo not given): the LC retention time stood at 6.43 min.

Regarding `C=CCN1CCC23c4c5ccc(O)c4OC2C(=O)CCC3(O)C1C5` (stereo not given), the LC retention time was 3.44 min.

On to `CNC(=O)Oc1ccccc1C(C)C`, for which the LC retention time amounted to 8.12 min.

In the case of `CCOC(=O)C(CCc1ccccc1)NC(C)C(=O)N1CCCC1C(=O)O` (stereo not given), the LC retention time turned out to be 6.83 min.

`CCSC(=O)N(CC(C)C)CC(C)C`: the LC retention time came to 12 min.

As for `O=C1N(CCN2CCCCC2)C(=O)C(c2ccccc2)(N2CCCCC2)C(=O)N1CCN1CCCCC1`, the LC retention time was found to be 7.64 min.

With `CCOP(=S)(OCC)SCS(=O)C(C)(C)C` (stereo not given), the LC retention time was 9 min.

As to `COC(=O)c1ccccc1CS(=O)(=O)NC(=O)Nc1nc(OC)cc(OC)n1`, the LC retention time came out at 8.77 min.

As to `CC1CC2C(C(O)CC3(C)C2CCC3(O)C(=O)CO)C2(C)C=CC(=O)C=C12` (stereo not given), the LC retention time was 8.75 min.

For `CC12CCC(=O)C=C1CCC1C2C(O)CC2(C)C(C(=O)CO)CCC12` (stereo not given), the LC retention time amounted to 8.74 min.

`NC(=O)c1cccnc1`: the LC retention time came out at 2.73 min.

`CCCN1CC(CSC)CC2c3cccc4[nH]cc(c34)CC21` (stereo not given): the LC retention time turned out to be 6.19 min.

Take `COP(=S)(OC)SCOC(C)=O`: the LC retention time came to 7.16 min.

Regarding `COc1cc(CNC(=O)CCCCC=CC(C)C)ccc1O`, the LC retention time was 9.83 min.

Regarding `CCN(CC)CCOC(=O)C1(C2CCCCC2)CCCCC1`, the LC retention time was determined as 9.99 min.

`C=CCc1ccccc1OCC(O)CNC(C)C` (stereo not given): the LC retention time was 6.71 min.

As to `CCN(CC)c1nc(C)cc(OP(=S)(OC)OC)n1`, the LC retention time was found to be 11.3 min.

As for `COc1ccc2c3c1OC1C(OC4OC(C(=O)O)C(O)C(O)C4O)C=CC4C(C2)NCCC341` (stereo not given), the LC retention time was 2.48 min.

For the compound `OC(CCN1CCCCC1)(c1ccccc1)C1CC2C=CC1C2` (stereo not given), the LC retention time was found to be 7.63 min.

Consider `O=C(Nc1ccc(C(=O)O)c(O)c1)c1ccccc1`, for which the LC retention time is 5.47 min.

Turning to `CC(CC(C#N)(c1ccccc1)C(C)C)N(C)C` (stereo not given), the LC retention time was 5.96 min.

Regarding `CCCCn1cc(C(=O)c2cccc3ccccc23)c2cccc(O)c21`, the LC retention time stood at 11.2 min.

For the compound `CC(CCc1ccc(O)cc1)NCC(O)c1ccc(O)cc1` (stereo not given), the LC retention time was determined as 4.39 min.

In the case of `Cc1cc(C)cc(OCC2CNC(=O)O2)c1` (stereo not given), the LC retention time is 7.86 min.

Turning to `Cc1cccc(N(C)C(=S)Oc2ccc3ccccc3c2)c1`, the LC retention time stood at 12.2 min.

Take `CC(C(=O)c1ccccc1)N(C)C` (stereo not given): the LC retention time was found to be 3.64 min.

For the compound `CCNc1nc(NC(C)CC)nc(OC)n1` (stereo not given), the LC retention time was found to be 8.79 min.

For the compound `CC12CCC3C(CCC4=CC(=O)CCC43C)C1CCC2=O` (stereo not given), the LC retention time stood at 9.36 min.

As for `CCCCN(CC)C(=O)SCCC`, the LC retention time amounted to 11.5 min.

As to `CC(=O)Nc1ccc(O)cc1`, the LC retention time stood at 3.48 min.

`CC(C)CC(C)Nc1ccc(Nc2ccccc2)cc1` (stereo not given): the LC retention time amounted to 9.92 min.

Regarding `CCC=CCC1=C(C)C(OC(=O)C2C(C=C(C)C(=O)OC)C2(C)C)CC1=O` (stereo not given), the LC retention time turned out to be 12.2 min.

With `CC(C)Nc1nc(N)[nH]c(=O)n1`, the LC retention time was found to be 3.16 min.

`O=C(C1CCCCC1)N1CC(=O)N2CCc3ccccc3C2C1` (stereo not given): the LC retention time was 9.32 min.

On to `C=CCCCn1cc(C(=O)c2cccc3ccccc23)c2ccccc21`, for which the LC retention time was determined as 12 min.

As for `C=C1CC(=CC)C(=O)OC2CC[N+]3([O-])CC=C(COC(=O)C1(C)O)C23` (stereo not given), the LC retention time came to 4.5 min.

Take `CCN(CC)C(=O)C(C#N)=Cc1cc(O)c(O)c([N+](=O)[O-])c1`: the LC retention time was 6.89 min.

With `CC(=O)NCCCS(=O)(=O)O`, the LC retention time amounted to 1.4 min.

As to `CCN(CC)C(=O)c1cccc(C)c1`, the LC retention time stood at 8.2 min.

With `CCCCCCCCc1ccc(OCCOCCO)cc1`, the LC retention time came out at 14.1 min.

As to `COC(=O)C1=C(C#N)NC(C)=C(C(=O)OC(C)C)C1c1cccc([N+](=O)[O-])c1` (stereo not given), the LC retention time was determined as 10.3 min.

Consider `COc1ccc2[nH]c(C)c(CCN(C)C)c2c1`, for which the LC retention time worked out at 4.19 min.

As to `CC(COc1ccc(Oc2ccccc2)cc1)Oc1ccccn1` (stereo not given), the LC retention time came out at 12.6 min.

With `O=C(O)CCCO`, the LC retention time came to 1.95 min.

Turning to `COc1cc2c(cc1OC)C13CCN4CC5=CCOC6CC(=O)N2C1C6C5CC43` (stereo not given), the LC retention time turned out to be 4.21 min.

As to `COc1ccc(C2Sc3ccccc3N(CCN(C)C)C(=O)C2OC(C)=O)cc1` (stereo not given), the LC retention time turned out to be 7.18 min.

For `CCCN1CCCCC1C(=O)Nc1c(C)cccc1C` (stereo not given), the LC retention time amounted to 5.39 min.

Regarding `CCCc1nn(C)c2c(=O)[nH]c(-c3cc(S(=O)(=O)N4CC(C)NC(C)C4)ccc3OCC)nc12` (stereo not given), the LC retention time was 7.6 min.

As to `CCOP(=S)(NC(C)CC)Oc1cc(C)ccc1[N+](=O)[O-]` (stereo not given), the LC retention time was found to be 11.2 min.

For `CCOC(=O)CC(SP(=S)(OC)OC)C(=O)OCC` (stereo not given), the LC retention time came to 9.59 min.

As for `OC(c1ccccc1)(c1ccccc1)C1CCNCC1`, the LC retention time was found to be 6.19 min.

Take `CNC(=O)ON=CC(C)(C)S(C)=O` (stereo not given): the LC retention time was 3.5 min.

Consider `CCCc1nn(C)c2c(=O)[nH]c(-c3cc(S(=O)(=O)N4CCN(CCO)CC4)ccc3OCC)nc12`, for which the LC retention time came out at 7.83 min.

With `NC(=O)c1ccccc1Oc1ccccc1`, the LC retention time was found to be 7.79 min.

`CN(C)c1ccc(C(c2ccccc2)c2ccc(N(C)C)cc2)cc1`: the LC retention time is 13.7 min.

On to `CCNC(C)Cc1ccc2c(c1)OCO2` (stereo not given), for which the LC retention time is 4.39 min.

As to `CC(C)N(C(=O)C(=O)O)c1ccccc1`, the LC retention time turned out to be 5.13 min.

As to `Cc1cccc(C)c1OCC(C)N` (stereo not given), the LC retention time was found to be 5.59 min.

Take `CCC(=O)C(CCN(C)C)(c1ccccc1)c1ccccc1`: the LC retention time was determined as 7.68 min.

With `CCCC(C(=O)c1ccc2c(c1)OCO2)N1CCCC1` (stereo not given), the LC retention time turned out to be 5.18 min.

As to `CNCC(O)c1cccc(NS(C)(=O)=O)c1` (stereo not given), the LC retention time amounted to 2.54 min.

For the compound `COc1ccc2c3c1OC1C(O)CCC4C(C2)N(C)CCC341` (stereo not given), the LC retention time came to 3.36 min.

As to `CC(C)C(NC(=O)c1nn(CC2CCCCC2)c2ccccc12)C(N)=O` (stereo not given), the LC retention time was found to be 11.3 min.

For `CC(C)c1nc(CN(C)C(=O)NC(C(=O)NC(Cc2ccccc2)CC(O)C(Cc2ccccc2)NC(=O)OCc2cncs2)C(C)C)cs1` (stereo not given), the LC retention time worked out at 11.1 min.

With `CCNC1CC(C)S(=O)(=O)c2sc(S(N)(=O)=O)cc21` (stereo not given), the LC retention time amounted to 3.19 min.

Turning to `Cc1nccc2c1[nH]c1ccccc12`, the LC retention time came out at 4.91 min.

As for `CC1(C)C(C(=O)c2cn(CCN3CCOCC3)c3ccccc23)C1(C)C`, the LC retention time worked out at 10.7 min.

For the compound `NCC1CCCCC1(O)c1cccc(O)c1` (stereo not given), the LC retention time is 4.36 min.

In the case of `COCCc1ccc(OCC(O)CNC(C)C)cc1` (stereo not given), the LC retention time was 4.93 min.

Turning to `CCCc1nn(C)c2c(=O)[nH]c(-c3cc(C(=O)CN4CC(C)NC(C)C4)ccc3OCC)nc12` (stereo not given), the LC retention time is 7.5 min.

With `COc1ccc(CC(C)NCC(O)c2ccc(O)c(NC=O)c2)cc1` (stereo not given), the LC retention time is 4.79 min.

On to `CNC(=O)ON=C(C)C(C)S(C)=O` (stereo not given), for which the LC retention time was 3.35 min.

On to `CCCCc1ncc(C=C(Cc2cccs2)C(=O)O)n1Cc1ccc(C(=O)O)cc1`, for which the LC retention time was determined as 7.49 min.

`O=C(O)c1cccc(Oc2ccccc2)c1`: the LC retention time is 9.38 min.

Consider `Oc1ccc2c3c1OC1C(O)C=CC4C(C2)NCCC341` (stereo not given), for which the LC retention time is 2.71 min.

On to `CCN1CCCC1CNC(=O)c1cc(S(=O)(=O)CC)c(N)cc1OC` (stereo not given), for which the LC retention time came to 3.88 min.

Turning to `CCS(=O)(=O)CCn1c([N+](=O)[O-])cnc1C`, the LC retention time was 3.86 min.

For `COc1cc(OC)nc(NC(=O)NS(=O)(=O)c2c(-c3nnn(C)n3)cnn2C)n1`, the LC retention time is 7.62 min.

Take `CN1C2CCC1C(C(=O)O)C(OC(=O)c1ccccc1)C2` (stereo not given): the LC retention time stood at 4.68 min.

`CNC(C)C(=O)c1ccc2c(c1)OCO2` (stereo not given): the LC retention time came to 3.81 min.

Turning to `Cc1nnc2n1-c1ccc([N+](=O)[O-])cc1C(c1ccccc1)=NC2`, the LC retention time came out at 6.91 min.

Turning to `CCOP(=S)(Oc1ccc([N+](=O)[O-])cc1)c1ccccc1` (stereo not given), the LC retention time worked out at 11.7 min.

In the case of `NCC(O)COc1ccccc1C(=O)CCc1ccccc1.O=C(O)C(=O)O` (stereo not given), the LC retention time was 7.09 min.

Consider `Cc1cc(=O)n(-c2ccccc2)n1C`, for which the LC retention time amounted to 4.63 min.

On to `CCCCNC(=O)NS(=O)(=O)c1ccc(C)cc1`, for which the LC retention time is 7.68 min.

Take `CCCCCn1cc(C(=O)Oc2cccc3cccnc23)c2ccccc21`: the LC retention time turned out to be 11.9 min.

On to `CSC1=NC(C)(c2ccccc2)C(=O)N1Nc1ccccc1` (stereo not given), for which the LC retention time turned out to be 9.22 min.

Regarding `NNC(N)=O`, the LC retention time was found to be 1.33 min.

As for `NCC(O)c1ccccc1` (stereo not given), the LC retention time amounted to 2.84 min.

Regarding `CCCCSP(=O)(SCCCC)SCCCC`, the LC retention time worked out at 13.4 min.

As to `CCCC(C)(COC(N)=O)COC(N)=O`, the LC retention time is 5.94 min.

As for `CC12CCC(=O)C=C1CCC1C2CCC2(C)C1CCC2(C)O` (stereo not given), the LC retention time was 10.4 min.

For the compound `O=C1OC(=O)c2ccccc21`, the LC retention time was 9.58 min.

Values taken from the RepoRT retention time repository (doi:10.1016/j.jhazmat.2019.121712).
